According to ChEMBL document CHEMBL1144093, “Neocrotocembranal from Croton oblongifolius” (1999):
Calls of active or inactive are those of the source. The calls are words filed in the database; no cut-off is given here.

What was measured:
P388 = experiment: Cytotoxicity against mouse P388 cells by MTT colorimetric method; format: functional
Platelet = experiment: Inhibition of thrombin-induced rabbit washed platelets aggregation by turbidimetric method; format: functional, Oryctolagus cuniculus

Row | Compound | Activity (P388) | Activity (Platelet) [µg/mL]
1 | C/C1=C\C=C(\C(C)C)CC/C(C(=O)O)=C\CC/C(C)=C/CC1 [NEOCROTOCEMBRANEIC ACID] | 41.47 µg/mL | –
2 | C/C1=C\C=C(\C(C)C)CC/C(C=O)=C\CC/C(C)=C/CC1 [NEOCROTOCEMBRANAL] | 6.48 µg/mL | 47.21
3 | C/C1=C\CC/C(C)=C/C=C(/C(C)C)CC/C(C(=O)O)=C/CC1 | inactive | –
